# In PMC10682503, “Structural and functional basis of inositol hexaphosphate stimulation of NHEJ through stabilization of Ku-XLF interaction” (Nucleic Acids Research, 2023):
# Tests used:
# [1] = molecular target: T1, KuΔC (Ku heterodimer deleted of its C-terminal regions) (Homo sapiens, UniProt P12956+P13010); assay: ITC, KuΔC with IP6; type: binding
# T1 construct: heterodimer deleted of its C-terminal region (Ku70 1–544, Ku80 1–551); His-tag (10x His with TEV site, same vector as KuFL) (N); made in house; host or cells: Sf21 insect cells
# Description: Purification of Ku full-length (KuFL) for cryo-EM experiments was carried out as described previously ([5]). Expression and purification of KuFL for biophysical experiments was carried out as described previously ([20]). The full-length human Ku heterodimer subunits (Ku70 1–609, Ku80 1–732) were cloned into a Multibac vector ([21]). The construct has a 10× His-tag and a TEV site on the N-terminus of Ku80 and no-tag on Ku70. Protein production was initiated in Sf21 cells by infection with the baculovirus stock at MOI of 5 × 10^−3 and cells were collected 5–6 days after the infection (3–4 days after the proliferation arrest). Cells were sonicated and the supernatant was incubated with Benzonase (300 units for 30 min at 4°C). The Ku heterodimer was purified on a NiNTA-Agarose affinity column (Protino, Macherey Nagel) with a 1 M NaCl wash step to remove DNA excess. The eluted Ku was then bound onto an anion exchange column (Resource Q, Cytiva) equilibrated in 20 mM Tris pH 8.0, 50 mM NaCl, 50 mM KCl, 10 mM β-mercaptoethanol and eluted with a salt gradient. […]
# Calorimetry. Interactions between KuFL and inositol phosphates (IPs) (IP6 and IP6 analogues) were determined by Isothermal Titration Calorimetry (ITC) using a VP-ITC calorimeter (Malvern). […] The free energy of binding (ΔG) and the entropy (ΔS) were determined using the classical thermodynamic formula, ΔG = - RT ln(Ka) and ΔG = ΔH - TΔS. […]
# Ku-DNA interaction = Ku-DNA interaction (Homo sapiens, UniProt P12956+P13010); assay: Single-molecule colocalization (TIRF) of Ku-AF647 on 18 bp DNA; type: binding; conditions: IP6 10 μM
# Description: Single molecule labelling, and flow channel preparation for single-molecule colocalization experiment are described in Supplemental Information. A single-molecule experiment was performed on a Total Internal Reflection Fluorescence (TIRF) microscope equipped with an inverted oil immersion objective (×100, 1.49 NA lens) coupled to 532 nm (Ultra-Laser, MGL-FN-532) and 639 nm (Ultra-Laser, MGL-FN-639) excitation lasers to excite the sample at TIRF illumination. A dichroic beam splitter (Semrock, Di03-635-t1) was used to split green and red signals, which were passed through narrow bandpass filters (Semrock, FF01-582/64 and FF01-680/42). The signals were collected by an electron-multiplying charge-coupled device (EM-CCD) (Andor, iXon897). Fluorescence beads (Invitrogen, Life Technologies Corporation, Eugene, OR) were used to map corresponding signals in green and red channels.
# The BSA in the flow channel was washed with T50 buffer. […] Movies of 1 000 frames (33 Hz) were recorded with the red laser and both lasers turned on for the first 900 frames and last 100 frames, respectively. Four independent experiments were performed where at least 20 movies were recorded for each experimental condition. […]
# Fluorescent labelling of Ku. […] The labelled protein was determined to have 50 % labelling efficiency, spectrophotometrically. […]
# Sequence of Ku-DNA interaction (P12956 whole entry): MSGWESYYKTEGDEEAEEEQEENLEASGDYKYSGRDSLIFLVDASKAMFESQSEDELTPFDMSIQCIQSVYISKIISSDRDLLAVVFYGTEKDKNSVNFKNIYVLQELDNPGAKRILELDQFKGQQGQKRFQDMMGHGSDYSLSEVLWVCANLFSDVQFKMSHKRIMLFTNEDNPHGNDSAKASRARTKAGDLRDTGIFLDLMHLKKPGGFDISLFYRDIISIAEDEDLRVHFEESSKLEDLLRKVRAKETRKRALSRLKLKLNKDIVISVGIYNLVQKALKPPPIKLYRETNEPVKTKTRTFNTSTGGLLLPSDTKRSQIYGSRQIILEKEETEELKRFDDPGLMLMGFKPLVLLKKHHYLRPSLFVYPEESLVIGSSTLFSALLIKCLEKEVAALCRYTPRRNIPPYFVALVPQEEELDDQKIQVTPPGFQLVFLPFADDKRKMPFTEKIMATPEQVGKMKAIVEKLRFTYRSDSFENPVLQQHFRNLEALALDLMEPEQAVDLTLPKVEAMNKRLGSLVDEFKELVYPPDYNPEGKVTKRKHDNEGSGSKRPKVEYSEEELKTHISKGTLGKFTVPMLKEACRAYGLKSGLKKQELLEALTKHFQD
# Sequence of Ku-DNA interaction (P13010 whole entry): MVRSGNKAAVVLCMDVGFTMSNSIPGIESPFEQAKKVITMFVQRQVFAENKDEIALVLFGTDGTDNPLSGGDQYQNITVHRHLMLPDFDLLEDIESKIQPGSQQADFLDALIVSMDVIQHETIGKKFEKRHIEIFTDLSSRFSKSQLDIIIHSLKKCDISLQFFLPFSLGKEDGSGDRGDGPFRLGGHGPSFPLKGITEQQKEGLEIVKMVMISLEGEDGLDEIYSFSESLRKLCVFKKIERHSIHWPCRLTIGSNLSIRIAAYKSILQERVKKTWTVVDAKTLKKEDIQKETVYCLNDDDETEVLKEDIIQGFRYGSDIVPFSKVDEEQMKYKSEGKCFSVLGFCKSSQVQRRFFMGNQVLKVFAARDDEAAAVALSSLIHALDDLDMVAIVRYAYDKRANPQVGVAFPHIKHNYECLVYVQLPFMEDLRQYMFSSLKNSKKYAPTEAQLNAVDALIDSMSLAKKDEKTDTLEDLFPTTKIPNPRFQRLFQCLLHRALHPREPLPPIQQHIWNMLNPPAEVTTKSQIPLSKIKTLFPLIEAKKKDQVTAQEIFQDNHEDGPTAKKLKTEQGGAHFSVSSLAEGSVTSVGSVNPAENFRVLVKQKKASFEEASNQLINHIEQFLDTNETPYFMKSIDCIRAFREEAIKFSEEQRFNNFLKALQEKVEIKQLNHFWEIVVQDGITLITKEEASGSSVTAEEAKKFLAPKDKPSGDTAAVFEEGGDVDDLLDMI
# T1 sequence (P12956 1-544, stated change not applied): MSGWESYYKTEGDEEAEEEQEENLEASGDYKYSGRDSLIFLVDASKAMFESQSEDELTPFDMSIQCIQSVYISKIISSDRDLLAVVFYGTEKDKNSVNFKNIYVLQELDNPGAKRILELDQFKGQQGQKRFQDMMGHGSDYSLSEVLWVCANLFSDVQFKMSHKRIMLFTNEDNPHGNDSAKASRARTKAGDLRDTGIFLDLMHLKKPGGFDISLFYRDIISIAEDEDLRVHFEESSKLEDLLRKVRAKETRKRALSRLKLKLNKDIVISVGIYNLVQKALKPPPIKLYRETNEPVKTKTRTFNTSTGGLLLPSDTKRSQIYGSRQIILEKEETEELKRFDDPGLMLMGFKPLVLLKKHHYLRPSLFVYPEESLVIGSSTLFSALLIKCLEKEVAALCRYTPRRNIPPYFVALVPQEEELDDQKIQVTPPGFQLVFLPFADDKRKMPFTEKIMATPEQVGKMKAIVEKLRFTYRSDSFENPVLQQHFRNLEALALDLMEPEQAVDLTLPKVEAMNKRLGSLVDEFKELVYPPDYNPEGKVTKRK
# T1 sequence (P13010 1-551, stated change not applied): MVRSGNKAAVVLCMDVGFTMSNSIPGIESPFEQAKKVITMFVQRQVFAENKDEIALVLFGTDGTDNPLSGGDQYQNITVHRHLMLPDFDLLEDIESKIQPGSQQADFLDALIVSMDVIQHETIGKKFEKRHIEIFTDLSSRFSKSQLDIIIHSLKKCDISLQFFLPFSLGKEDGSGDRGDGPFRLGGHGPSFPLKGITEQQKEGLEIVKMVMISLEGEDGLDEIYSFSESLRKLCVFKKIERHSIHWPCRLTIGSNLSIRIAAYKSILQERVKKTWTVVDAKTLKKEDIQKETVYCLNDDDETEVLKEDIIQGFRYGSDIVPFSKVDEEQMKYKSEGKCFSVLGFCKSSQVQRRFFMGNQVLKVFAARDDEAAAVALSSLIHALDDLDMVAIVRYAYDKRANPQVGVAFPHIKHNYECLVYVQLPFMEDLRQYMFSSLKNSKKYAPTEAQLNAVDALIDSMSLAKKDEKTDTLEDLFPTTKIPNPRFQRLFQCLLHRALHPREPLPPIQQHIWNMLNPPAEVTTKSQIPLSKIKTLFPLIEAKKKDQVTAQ
smiles,measurement,setting,value
"O=P(O)(O)O[C@H]1[C@H](OP(=O)(O)O)[C@@H](OP(=O)(O)O)[C@H](OP(=O)(O)O)[C@@H](OP(=O)(O)O)[C@H]1OP(=O)(O)O [IP6, inositol hexaphosphate]",weaker affinity of KuΔC compared with KuFL,[1],~50 fold
same,Kd,[1]; KuΔC construct,178 ± 12 nM
same,kinetic dissociation constant (kOFF) of Ku from dsDNA,Ku-DNA interaction,decreases
same,residence times of Ku on DNA,Ku-DNA interaction,slightly increases
